Data published in US8937091B2 (Japan Science and Technology Agency, priority 2009, dated 2015).

How the values were obtained:
[1] = tested on: IICR (IP3 induced calcium release) in CHO cells; assay: Assay of IICR (IP3 induced calcium release)-inhibiting action; format: cell-based, Chinese hamster; settings: for inhibition at 10 µM / inhibition at 30 µM / inhibition at 100 µM / IC50: Cricetulus griseus, CHO; for inhibition at 10 µM / inhibition at 30 µM / inhibition at 100 µM / IICR level (percentage of inhibition): CHO cells, 10 μM ATP; for inhibition at 10 µM / inhibition at 30 µM / inhibition at 100 µM: read-out: IICR level (percentage of inhibition); for IC50: Table 1
Description: The extracellular fluid (i.e., medium) of cultured CHO cells was replaced by BSS containing calcium. One minute later, a test compound was added. Two minutes later, 10 μM ATP was added. The IICR-inhibiting action levels at different compound concentrations after the addition of ATP were determined as the percentage of inhibition (%) by evaluating the influence of the compound on the degree of increase in the intracellular calcium concentration.
(§1) Hereafter, the numerals in parentheses written after the TG level, the SOCE level, and the IICR level correspond to the test compound concentrations. The number following the name of each title compound used in the Examples below represents a compound ID number designated arbitrarily by the present inventors.

[2] = tested on: SOCE (store operated calcium entry) in CHO cells; assay: Assay of SOCE (store operated calcium entry)-inhibiting action; format: cell-based, Chinese hamster; settings: for inhibition at 10 µM / inhibition at 30 µM / inhibition at 100 µM / IC50: Cricetulus griseus, CHO; for inhibition at 10 µM / inhibition at 30 µM / inhibition at 100 µM / SOCE level (percentage of inhibition): CHO cells, thapsigargin; for inhibition at 10 µM / inhibition at 30 µM / inhibition at 100 µM: read-out: SOCE level (percentage of inhibition); for IC50: Table 1
Description: The extracellular fluid (i.e., medium) of cultured Chinese hamster ovary (CHO) cells was replaced by BSS containing no calcium. One minute later, a test compound was added. Two minutes later, 1 μM thapsigargin was added to cause depletion of the intracellular calcium store. Nine minutes later, calcium chloride (final concentration: 2 mM) was added to the extracellular fluid. The SOCE-inhibiting action levels at different compound concentrations after the addition of calcium chloride were determined as the percentage of inhibition (%) by evaluating the influence of the compound on the degree of increase in the intracellular calcium concentration.
as §1

Compound	inhibition at 10 µM ([1]; test compound 10 μmol)	inhibition at 30 µM ([1]; test compound 30 μmol)	inhibition at 100 µM ([1]; test compound 100 μmol)	inhibition at 10 µM ([2]; test compound 10 μmol)	inhibition at 30 µM ([2]; test compound 30 μmol)	inhibition at 100 µM ([2]; test compound 100 μmol)	IICR level (percentage of inhibition) ([1]; test compound 10 μmol)	IICR level (percentage of inhibition) ([1]; test compound 30 μmol)	IICR level (percentage of inhibition) ([1]; test compound 100 μmol)	SOCE level (percentage of inhibition) ([2]; test compound 10 μmol)	SOCE level (percentage of inhibition) ([2]; test compound 30 μmol)	SOCE level (percentage of inhibition) ([2]; test compound 100 μmol)	IC50 [1]	IC50 [2]
O=C(CCN(CCO)Cc1ccccc1)c1ccccn1 [Example 96]	20%	30%	100%	0%	0%	0%	–	–	–	–	–	–	–	–
COC(=O)C(CCC(=O)c1ccc2ccccc2c1)C(C)=O (stereo not shown) [Example 97, 3-acetyl-3-methoxycarbonylpropyl-2-naphthylketone]	0%	10%	70%	0%	10%	90%	–	–	–	–	–	–	–	–
CCC(=O)C(CCC(=O)c1ccc2ccccc2c1)C(=O)OC (stereo not shown) [Example 98, 3-propionyl-3-methoxycarbonylpropyl-2-naphthylketone]	0%	0%	0%	0%	10%	60%	–	–	–	–	–	–	–	–
CN(CCC(=O)c1ccc2ccccc2c1)Cc1ccccc1 [Example 99, 2-(N-methylbenzyl)aminoethyl-2-naphthylketone]	–	–	–	–	–	–	0%	20%	60%	0%	0%	30%	–	–
CN(CCO)CCC(=O)c1ccc2ccccc2c1 [Example 100, 2-(N-methylhydroxyethyl)aminoethyl-2-naphthylketone]	0%	0%	60%	0%	0%	20%	–	–	–	–	–	–	–	–
O=C(CCN(CCO)CCO)c1cnccn1 [Example 102, N,N-bis(2-hydroxyethyl)aminoethyl-2-pyrazylketone]	0%	20%	100%	0%	0%	0%	–	–	–	–	–	–	–	–
CC(C)N(CCC(=O)c1ccc(Cc2ccccc2)cc1)Cc1ccccc1 [Example 103, 2-(N-isopropylbenzyl)aminoethyl-4-benzylphenylketone]	–	–	–	–	–	–	80%	80%	100%	10%	50%	60%	–	–
CN(CCC(=O)c1ccc(Cc2ccccc2)cc1)Cc1ccccc1 [Example 104, 2-(N-methylbenzyl)aminoethyl-4-benzylphenylketone]	40%	20%	90%	0%	10%	70%	–	–	–	–	–	–	–	–
CC(C)(C)N(CCC(=O)c1ccc(Cc2ccccc2)cc1)Cc1ccccc1 [Example 105, 2-(N-t-butylbenzyl)aminoethyl-4-benzylphenylketone]	40%	70%	90%	0%	20%	40%	–	–	–	–	–	–	–	–
CC(C)N(CCC(=O)c1cccnc1)Cc1ccccc1 [Example 106, 2-(N-isopropylbenzyl)aminoethyl-3-pyridylketone]	90%	90%	100%	0%	0%	0%	–	–	–	–	–	–	< 10 µM	> 100 µM
CC(C)N(CCC(=O)c1ccncc1)Cc1ccccc1 [Example 107, 2-(N-isopropylbenzyl)aminoethyl-4-pyridylketone]	30%	90%	90%	0%	20%	30%	–	–	–	–	–	–	< 10 µM	> 100 µM
CCCCN(CCO)CCC(=O)c1cnccn1 [Example 108, 2-(N-butyl-2-hydroxyethyl)aminoethyl-2-pyrazinylketone]	0%	10%	80%	0%	0%	0%	–	–	–	–	–	–	–	–
CC(C)N(CCC(=O)c1ccco1)Cc1ccccc1 [Example 109, 2-(N-isopropylbenzyl)aminoethyl-2-furylketone]	20%	90%	70%	0%	0%	10%	–	–	–	–	–	–	–	–
